pIC50: −log10 of the molar value. Where two headings read alike, the source gives them in different places.
How the values were obtained:
[1] = system: phospho-ERK1/2 (Thr202/Tyr204) in A549 cells; experiment: pERK and ERK Western blot analysis, A549; type: cell-based; conditions: Homo sapiens; A549, KRAS G12S, 4 hours
Experimental: (§1) MIA PaCa-2 (ATCC), NCI-H358 (ATCC), NCI-H23 (ATCC), SW837 and A549 (ATCC) cells were plated in 24-well plates at 2×10^5cells/well in RPMI growth medium containing 10% FBS and 1× Penicillin Streptomycin. They were then incubated at 37° C. overnight. The following day, the test compound was administered to the cells by using 1000× compound stock solution prepared in DMSO at various concentrations. After administration of the compound, the cells were then incubated at 37° C. for 4 hours. Upon completion, the cells were washed with PBS and protein was collected in Laemmli sample buffer (1×; VWR International). Proteins in cell lysate were separated by SDS-PAGE and transferred to Odyssey nitrocellulose membranes (Licor) with iblot® dry blotting transfer system (ThermoFisher). Nonspecific binding was blocked by incubating membranes with Intercept Blocking Buffer (Licor) for 1 hour at room temperature with gentle shaking. The membranes were then incubated overnight at 4° C. with primary antibodies rabbit anti-phospho p44/42 MAPK (Erk1/2) (1:2,000, Cell Signaling, 4370) and mouse anti-p44/42 MAPK (Erk1/2) (1:1,000, Cell Signaling, 4696) diluted in Intercept Blocking Buffer containing 0.1% Tween 20. […] The bands were quantified using Image Studio™ Software (Licor).

[2] = system: phospho-ERK1/2 (Thr202/Tyr204) in MIA PaCa-2 cell line; experiment: pERK and ERK Western blot analysis, MIA PaCa-2; type: cell-based; conditions: Homo sapiens
Experimental: MIA PaCa-2 (ATCC), NCI-H358 (ATCC), NCI-H23 (ATCC), SW837 and A549 (ATCC) cells were plated in 24-well plates at 2×10^5cells/well in RPMI growth medium containing 10% FBS and 1× Penicillin Streptomycin. They were then incubated at 37° C. overnight. The following day, the test compound was administered to the cells by using 1000× compound stock solution prepared in DMSO at various concentrations. After administration of the compound, the cells were then incubated at 37° C. for 4 hours. Upon completion, the cells were washed with PBS and protein was collected in Laemmli sample buffer (1×; VWR International). Proteins in cell lysate were separated by SDS-PAGE and transferred to Odyssey nitrocellulose membranes (Licor) with iblot® dry blotting transfer system (ThermoFisher). Nonspecific binding was blocked by incubating membranes with Intercept Blocking Buffer (Licor) for 1 hour at room temperature with gentle shaking. The membranes were then incubated overnight at 4° C. with primary antibodies rabbit anti-phospho p44/42 MAPK (Erk1/2) (1:2,000, Cell Signaling, 4370) and mouse anti-p44/42 MAPK (Erk1/2) (1:1,000, Cell Signaling, 4696) diluted in Intercept Blocking Buffer containing 0.1% Tween 20. After washing 3 times with TBS-T, the membranes were incubated with IRDye® 800CW goat anti-rabbit IgG (1:20,000, Licor) or IRDye® 680CW goat anti-mouse IgG (1:20,000, Licor) for 1 hour. After TBS-T washes, membranes were rinsed in TBS and scanned on Odyssey® CLx Imaging System (Licor). The bands were quantified using Image Studio™ Software (Licor).

[3] = target: T1, KRAS-G12C mutant (Homo sapiens, UniProt P01116, G12C); experiment: Gel shift assay (SDS-PAGE) for covalent modification of KRAS G12C; type: binding; conditions: 0.5 μM compound, 1 μM GDP-bound KRAS G12C, 25° C., 5 minutes, shift indicative of covalent cysteine conjugation
Experimental: 0.5 μM compounds were incubated with 1 μM GDP-bound untagged KRAS (G12C or wild type) proteins at 25° C. for 5 minutes in 40 μl reaction buffer (50 mM Tris, pH 7.5, 100 mM NaCl, 1 mM MgCl2, 1 mM DTT). The reactions were quenched with 10 μI SDS-PAGE sample loading buffer (250 mM Tris-HCl, pH 6.8, 10% SDS, 0.5% bromophenol blue, 50% glycerol and 50 mM DTT) and then analyzed via SDS-PAGE using 4%-20% gradient polyacrylamide gel followed by Coomassie blue stain.
FIG. 1 illustrates mobility change of KRAS-G12C mutant or wild type proteins on SDS-PAGE after 5 minutes of coincubation at 25° C. with exemplary compounds of the present disclosure, indicative of covalent cysteine conjugation.
Table 3 summarizes molecular weight shift of KRAS-G12C mutant on SDS-PAGE after 5 mins of coincubation at 25° C. with exemplary compounds of the present disclosure, indicative of covalent cysteine conjugation.

[4] = system: phospho-ERK1/2 (Thr202/Tyr204) in SW837 cells; experiment: pERK and ERK Western blot analysis, SW837; type: cell-based; conditions: Homo sapiens; SW837, KRAS G12C, 4 hours
Experimental: as §1

[5] = system: SW837 cells; experiment: 3D cell growth assay (CellTiter-Glo), SW837; type: cell-based; conditions: Homo sapiens, 144 h, SW837, KRAS G12C, 6 days, read-out: 3D growth inhibition GI50
Experimental: (§2) MIA PaCa-2 (ATCC), NCI-H358 (ATCC), NCI-H23 (ATCC), SW837 and A549 (ATCC) cells were plated in round bottom 96-well spheroid microplates (Corning, 4520) at 3000 cells/well in 90 ul of RPMI growth medium containing 10% FBS and 1% Penicillin Streptomycin. Cells were incubated at 37° C. overnight. The following day, the test compound was administered to the cells by using 10× compound stock solution prepared in growth medium at various concentrations. After administration of the compound, cells were then incubated at 37° C. for 6 days. Before CellTiter-Glo assay, the plates were equilibrated at room temperature for approximately 10 minutes. 100 ul of CellTiter-Glo® Reagent (Promega, G7573) was added to each well. The plates were then incubated at room temperature for 10 minutes and luminescence was recorded by EnSpire plate reader (PerkinElmer). Table 6 illustrates growth inhibition (G150) by exemplary compounds 1-10 of the present disclosure in a MIA PaCa-2 cell line 6 days after administration in 3D cell culture. A: >0.1 nM and <1 nM; B: >=1 nM and <10 nM; C: >=10 nM and <100 nM; D: >100 nM.

[6] = system: NCI-H23 cells; experiment: 3D cell growth assay (CellTiter-Glo), NCI-H23; type: cell-based; conditions: Homo sapiens, 144 h, NCI-H23, KRAS G12C, 6 days, read-out: 3D growth inhibition GI50
Experimental: as §2

[7] = system: MIA PaCa-2 cell line; experiment: 3D cell growth assay (CellTiter-Glo), MIA PaCa-2; type: cell-based; conditions: Homo sapiens, MIA PaCa-2, 144 h, 6 days, read-out: 3D growth inhibition GI50
Experimental: as §2

[8] = system: A549 cells; experiment: 3D cell growth assay (CellTiter-Glo), A549; type: cell-based; conditions: Homo sapiens, 144 h, A549, KRAS G12S, 6 days, read-out: 3D growth inhibition GI50
Experimental: as §2

[9] = system: phospho-ERK1/2 (Thr202/Tyr204) in NCI-H358 cells; experiment: pERK and ERK Western blot analysis, NCI-H358; type: cell-based; conditions: Homo sapiens; NCI-H358, KRAS G12C, 4 hours
Experimental: as §1

[10] = system: NCI-H358 cells; experiment: 3D cell growth assay (CellTiter-Glo), NCI-H358; type: cell-based; conditions: Homo sapiens, 144 h, NCI-H358, KRAS G12C, 6 days, read-out: 3D growth inhibition GI50
Experimental: as §2

[11] = system: phospho-ERK1/2 (Thr202/Tyr204) in NCI-H23 cells; experiment: pERK and ERK Western blot analysis, NCI-H23; type: cell-based; conditions: Homo sapiens; NCI-H23, KRAS G12C, 4 hours
Experimental: as §1

[12] = target: T1, KRAS-G12C mutant; experiment: TR-FRET assay of SOS1-assisted KRAS GDP/GTP exchange; type: biochemical
Experimental: GDP form of 6*His tagged KRAS-G12C was diluted to 40 nM and incubated with 8 nM LanthaScreen™ Elite Terbium-anti-HIS Antibody (Thermo, catalog number PV5863) in reaction buffer containing 20 mM Tris, pH 7.5, 100 mM NaCl, 1 mM DTT, 0.1% Tween20, 0.05% BSA, 2% DMSO, 1 mM MgCl2. After 1 hour-incubation at 4° C., proteins were placed in 384 well plate (PerkinElmer, PROXIPLATE-384 PLUS). Then compounds with different concentrations were added to the proteins. BODIPY labeled GTP (Thermo, catalog number G12411) and SOS-1 (or reaction buffer as control) were then added to reactions at 200 nM and 1 μM to trigger the exchange of GDP to BODIPY-GTP. TR-FRET emission signals were determined at 520 nm and 620 nm on a Envision® Multilabel Plate Reader (PerkinElmer) using a 337 nm laser as light source. All data were analyzed and plotted using Graph Pad Prism software (version 8.0.1). Raw TR-FRET data were converted to percentage of inhibition (relative to DMSO) using the following equations: […]
b) For a given test compound concentration X:
Signal (X)=Emission ratio (SOS-1 & GTP)—Emission ratio (buffer & GTP)
c) Percentage of inhibition at concentration X=[1−Signal(X)/Signal (DMSO)]*100%
The […] values were determined by nonlinear regression of plots of [inhibitor] vs. percentage of inhibition with variable slope. Table 4 summarizes inhibition of SOS1-assisted GDP/GTP exchanging activity of KRAS-G12C mutant with exemplary compounds of the present disclosure.

[13] = MIA PaCa-2, MiaPaCa2, KRAS G12C, 4 hours, read-out: pERK IC50
[14] = MIA PaCa-2 cell line, 4 hours after incubation, read-out: 2D pERK IC50
[15] = MIA PaCa-2 cell line, 3D cell culture

pIC50 [1]	pIC50 [2, 13]	pIC50 [2, 14]	KRAS-G12C molecular weight shift [3]	pIC50 [4]	GI50 [5]	GI50 [6]	GI50 [7, 15]	GI50 ([7]; MiaPaCa2, KRAS G12C, 3D)	GI50 [8]	pIC50 [9]	GI50 [10]	pIC50 [11]	pIC50 [12]	SMILES
< 4.52	8.62	8.00 to 9.00	Yes	8.92	4.1 nM	2.1 nM	0.1 to 1 nM	0.3 nM	> 300 nM	8.60	0.2 nM	8.77	7.70	C=C(F)C(=O)N1CCN(c2nc(OC[C@@]34CCCN3C[C@H](F)C4)nc3c2CO[C@H](c2cccc4cccc(Cl)c24)C3)C[C@@H]1CC#N [Compound 64, 2-((S)-4-((S)-7-(8-chloronaphthalen-1-yl)-2-(((2R,7aS)-2-fluorotetrahydro-1H-pyrrolizin-7a(5H)-yl)methoxy)-7,8-dihydro-5H-pyrano[4,3-d]pyrimidin-4-yl)-1-(2-fluoroacryloyl)piperazin-2-yl)acetonitrile]
< 4.52	8.00	8.00 to 9.00	Yes	8.23	8.6 nM	8.4 nM	0.1 to 1 nM	0.8 nM	> 300 nM	7.92	0.7 nM	8.19	7.66	C=C(F)C(=O)N1CCN(c2nc(OCC34CCCN3CCC4)nc3c2CO[C@H](c2cccc4cccc(Cl)c24)C3)C[C@@H]1CC#N (single isomer, unassigned) [Compound 55]
		< 7.00	No				> 100 nM						4.94	C=C(F)C(=O)N1CCN(c2nc(OCC3(CN4CCCC4)CC3)nc3c2CO[C@@H](c2cccc4cccc(Cl)c24)C3)C[C@@H]1CC#N (single isomer, unassigned) [Compound 72]
	7.66	7.00 to 8.00	Yes				1 to 10 nM	7.3 nM					7.11	C=C(F)C(=O)N1CCN(c2nc(OC[C@@H]3CCCN3C)nc3c2CO[C@H](c2cccc4cccc(Cl)c24)C3)C[C@@H]1CC#N [Compound 18, 2-((S)-4-((S)-7-(8-chloronaphthalen-1-yl)-2-(((S)-1-methylpyrrolidin-2-yl)methoxy)-7,8-dihydro-5H-pyrano[4,3-d]pyrimidin-4-yl)-1-(2-fluoroacryloyl)piperazin-2-yl)acetonitrile]
		7.00 to 8.00	Yes				1 to 10 nM						7.70	C=C(F)C(=O)N1CCN(c2nc(OCC34CCCN3CCC4)nc3c2CO[C@H](c2cccc4c2CCCC4)C3)C[C@@H]1CC#N [Compound 69, 2-((S)-1-(2-fluoroacryloyl)-4-((S)-2-((tetrahydro-1H-pyrrolizin-7a(5H)-yl)methoxy)-7-(5,6,7,8-tetrahydronaphthalen-1-yl)-7,8-dihydro-5H-pyrano[4,3-d]pyrimidin-4-yl)piperazin-2-yl)acetonitrile]
		7.00 to 8.00	Yes				1 to 10 nM						7.22	C=C(F)C(=O)N1CCN(c2nc(OCC34CCCN3CCC4)nc3c2C(C)OC(c2cccc4cccc(Cl)c24)C3)C[C@@H]1CC#N (stereo partly drawn) [Compound 59, 2-((2S)-4-(7-(8-chloronaphthalen-1-yl)-5-methyl-2-((tetrahydro-1H-pyrrolizin-7a(5H)-yl)methoxy)-7,8-dihydro-5H-pyrano[4,3-d]pyrimidin-4-yl)-1-(2-fluoroacryloyl)piperazin-2-yl)acetonitrile]
		7.00 to 8.00	Yes				1 to 10 nM						7.52	C=C(F)C(=O)N1CCN(c2nc(OCC34CCCN3CCC4)nc3c2[C@H](C)O[C@H](c2cccc4cccc(C)c24)C3)C[C@@H]1CC#N [Compound 66, 2-((S)-1-(2-fluoroacryloyl)-4-((5S,7S)-5-methyl-7-(8-methylnaphthalen-1-yl)-2-((tetrahydro-1H-pyrrolizin-7a(5H)-yl)methoxy)-7,8-dihydro-5H-pyrano[4,3-d]pyrimidin-4-yl)piperazin-2-yl)acetonitrile]

Source: US20220112204A1, “SUBSTITUTED DIHYDROPYRANOPYRIMIDINE COMPOUNDS AS KRAS INHIBITORS” (ACCUTAR BIOTECHNOLOGY INC., priority 2020, published 2022)
